The data set is described as follows: HILIC, HILICON iHILIC-(P) Classic, HILIC, PEEK, 50 × 2.1 mm, 5 µm, 30 °C, 0.12 mL/min, estimated dead time 0.92 min; A: water + 20 mM ammonium carbonate + 10 mM ammonium hydroxide; B: acetonitrile; gradient (min/%B) 0/90 1/90 21/20 21.5/20 23.5/20 24.5/90 26/90 26.5/90. The following applies: stereoisomer not certain.
`NC(Cc1ccc(O)cc1)C(=O)O` (stereo not drawn) [Tyrosine]: the LC retention time was 6.96 min. As for `NC(=O)c1ccc[n+](C2OC(COP(=O)([O-])O)C(O)C2O)c1` (stereo not drawn) [NMN], the LC retention time was 9.92 min. On to `Nc1nc2ncc(CNc3ccc(C(=O)NC(CCC(=O)O)C(=O)O)cc3)nc2c(=O)[nH]1` (stereo not drawn) [Folic Acid], for which the LC retention time was 14.3 min.

Regarding `NC(=O)CC(N)C(=O)O` (stereo not drawn) [Asparagine], the LC retention time is 10.7 min. On to `O=C(O)CCCCC1SCC2NC(=O)NC21` (stereo not drawn) [Biotin], for which the LC retention time was 3.27 min. As for `CCC(C)C(N)C(=O)O` (stereo not drawn) [Isoleucine], the LC retention time was 5.8 min. For the compound `Nc1ccn(C2OC(CO)C(O)C2O)c(=O)n1` (stereo not drawn) [Cytidine], the LC retention time is 5.88 min. The result for `O=c1ccn(C2OC(COP(=O)(O)O)C(O)C2O)c(=O)[nH]1` (stereo not drawn) [UMP] reads 9.35 min. As to `Nc1ncnc2c1ncn2C1OC(CO)C(O)C1O` (stereo not drawn) [Adenosine], the LC retention time is 3.59 min. With `O=P(O)(O)OCC1OC(O)(COP(=O)(O)O)C(O)C1O` (stereo not drawn) [Fructose-1,6-bisphosphate] the figure was 16 min; with `Nc1nc2c(ncn2C2OC(COP(=O)(O)OP(=O)(O)O)C(O)C2O)c(=O)[nH]1` (stereo not drawn) [GDP], 14.8 min; with `O=C(O)c1cccnc1` [Nicotinic acid], 2.38 min. The result for `CC(C)CC(N)C(=O)O` (stereo not drawn) [Leucine] reads 5.52 min; that for `Cc1ncc(C[n+]2csc(CCO)c2C)c(N)n1` [Thiamine], 12.8 min.

With `NC(CO)C(=O)O` (stereo not drawn) [Serine], the LC retention time is 8.67 min. Turning to `O=C(O)C(CO)OP(=O)(O)O` (stereo not drawn) [Phosphoglyceric acid A], the LC retention time is 13.6 min. For the compound `NC(=O)C1=CN(C2OC(COP(=O)(O)OP(=O)(O)OCC3OC(n4cnc5c(N)ncnc54)C(O)C3O)C(O)C2O)C=CC1` (stereo not drawn) [NADH], the LC retention time was 9.31 min.

On to `O=C(O)CC(=O)O` [Malonic Acid], for which the LC retention time was 9.18 min. On to `O=C(CO)COP(=O)(O)O` [Triose phosphate], for which the LC retention time is 10.9 min. For `Nc1ncnc2c1ncn2C1OC(COP(=O)(O)OP(=O)(O)OP(=O)(O)O)C(O)C1O` (stereo not drawn) [ATP], the LC retention time is 13.5 min. As to `Nc1ncnc2nc[nH]c12` [Adenine], the LC retention time is 3.45 min. As to `NC(=O)CCC(N)C(=O)O` (stereo not drawn) [Glutamine], the LC retention time is 8.38 min.

As to `O=c1ccn(C2OC(COP(=O)(O)OP(=O)(O)O)C(O)C2O)c(=O)[nH]1` (stereo not drawn) [UDP], the LC retention time is 12.3 min. The result for `O=C(O)C1(O)CC(O)C(O)C(O)C1` (stereo not drawn) [Quinic Acid] reads 6.61 min; that for `CC(O)C(N)C(=O)O` (stereo not drawn) [Threonine], 8.21 min; that for `O=c1ccn(C2OC(COP(=O)(O)OP(=O)(O)OP(=O)(O)O)C(O)C2O)c(=O)[nH]1` (stereo not drawn) [UTP], 14.2 min. `O=C(O)CC(C(=O)O)C(O)C(=O)O` (stereo not drawn) [Isocitric acid]: the LC retention time was 16.1 min. With `Nc1nc2c(ncn2C2OC(CO)C(O)C2O)c(=O)[nH]1` (stereo not drawn) [Guanosine] the figure was 6.51 min; with `NCCCCC(N)C(=O)O` (stereo not drawn) [Lysine], 18.8 min. For the compound `CC(O)C(=O)O` (stereo not drawn) [Lactic Acid], the LC retention time was 3.24 min. Take `NC(Cc1ccccc1)C(=O)O` (stereo not drawn) [Phenylalanine]: the LC retention time is 5.17 min. As to `NC(CCC(=O)NC(CS)C(=O)NCC(=O)O)C(=O)O` (stereo not drawn) [GSH], the LC retention time is 8.79 min.

Regarding `NC(Cc1c[nH]c2ccccc12)C(=O)O` (stereo not drawn) [Tryptophan], the LC retention time was 6.14 min. With `NC(CCC(=O)O)C(=O)O` (stereo not drawn) [Glutamic acid], the LC retention time is 9.84 min. For the compound `C=C(OP(=O)(O)O)C(=O)O` [PEP], the LC retention time is 13.7 min. For the compound `Nc1nc2c(ncn2C2OC(COP(=O)(O)O)C(O)C2O)c(=O)[nH]1` (stereo not drawn) [GMP], the LC retention time was 14.2 min. As to `O=C(O)C1CCCN1` (stereo not drawn) [Proline], the LC retention time is 6.54 min. Take `NCCCC(N)C(=O)O` (stereo not drawn) [Ornithine]: the LC retention time is 18.1 min. As for `O=C(O)CC(O)(CC(=O)O)C(=O)O` [Citric acid], the LC retention time is 16.6 min. The result for `Nc1nc2c(ncn2C2OC(COP(=O)(O)OP(=O)(O)OP(=O)(O)O)C(O)C2O)c(=O)[nH]1` (stereo not drawn) [GTP] reads 17 min; that for `CC(C)C(N)C(=O)O` (stereo not drawn) [Valine], 6.3 min. Turning to `NC(=O)c1ccc[n+](C2OC(COP(=O)(O)OP(=O)(O)OCC3OC(n4cnc5c(N)ncnc54)C(OP(=O)(O)O)C3O)C(O)C2O)c1` (stereo not drawn) [NADP], the LC retention time is 13.4 min. On to `O=P(O)(O)OCC(O)CO` (stereo not drawn) [Glycerol-3-phosphate], for which the LC retention time was 10.9 min.

Regarding `O=C1OC(C(O)CO)C(O)=C1O` (stereo not drawn) [Ascorbic Acid], the LC retention time was 9.17 min. In the case of `NC(CSSCC(N)C(=O)O)C(=O)O` (stereo not drawn) [Cystine], the LC retention time is 11.6 min. As to `Nc1ncnc2c1ncn2C1OC(COP(=O)(O)O)C(O)C1O` (stereo not drawn) [AMP], the LC retention time is 8.72 min. With `NC(=O)C1=CN(C2OC(COP(=O)(O)OP(=O)(O)OCC3OC(n4cnc5c(N)ncnc54)C(OP(=O)(O)O)C3O)C(O)C2O)C=CC1` (stereo not drawn) [NADPH] the figure was 16.9 min.

In the case of `Nc1ccn(C2OC(COP(=O)(O)O)C(O)C2O)c(=O)n1` (stereo not drawn) [CMP], the LC retention time is 11.1 min.

As to `CC(=O)NC(CC(=O)O)C(=O)O` (stereo not drawn) [N-Acetylaspartic acid], the LC retention time was 9.45 min. For `O=C(O)CC(O)C(=O)O` (stereo not drawn) [Malic Acid], the LC retention time is 12.9 min. Consider `NC(CCC(=O)NC(CSSCC(NC(=O)CCC(N)C(=O)O)C(=O)NCC(=O)O)C(=O)NCC(=O)O)C(=O)O` (stereo not drawn) [GSSG], for which the LC retention time is 15.4 min. Regarding `CC(=O)SCCNC(=O)CCNC(=O)C(O)C(C)(C)COP(=O)(O)OP(=O)(O)OCC1OC(n2cnc3c(N)ncnc32)C(O)C1OP(=O)(O)O` (stereo not drawn) [Acetyl-CoA], the LC retention time was 8.53 min.

`NC(=O)c1ccc[n+](C2OC(COP(=O)(O)OP(=O)(O)OCC3OC(n4cnc5c(N)ncnc54)C(O)C3O)C(O)C2O)c1` (stereo not drawn) [NAD]: the LC retention time was 9.03 min. Consider `CSCCC(N)C(=O)O` (stereo not drawn) [Methionine], for which the LC retention time is 5.98 min. For `Nc1ncnc2c1ncn2C1OC(COP(=O)(O)OP(=O)(O)O)C(O)C1O` (stereo not drawn) [ADP], the LC retention time is 12.3 min. As to `O=C(O)CCC(=O)O` [Succinic Acid], the LC retention time was 11.6 min. As for `Nc1ccn(C2OC(COP(=O)(O)OP(=O)(O)O)C(O)C2O)c(=O)n1` (stereo not drawn) [CDP], the LC retention time is 13.2 min. On to `CC(=O)NC1C(OP(=O)(O)OP(=O)(O)OCC2OC(n3ccc(=O)[nH]c3=O)C(O)C2O)OC(CO)C(O)C1O` (stereo not drawn) [UDP-GlcNAc], for which the LC retention time was 11.9 min.

These data come from the RepoRT retention time repository.
